System: 362531-283-R-J2-PDC complex spheroid viability
Experiment: Anticancer human tumor 362531-283-R-J2-PDC patient-derived colon adenocarcinoma cell line growth inhibition [RAS]
Conditions: for IC50: curve of first compound; for viability, T/C: stronger effect = lower value
Procedure, shortened: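 Multi-cell-type spheroids: tumor cells plus HUVEC endothelial cells and mesenchymal stem cells. RAS-pathway inhibitors were combined with targeted agents, each dosed in half-log steps down from clinical Cmax, or from 10 microM when Cmax was unknown.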

[1] = second compound 0.000949 µM, first compound 0.0316 µM
[2] = second compound 0.000949 µM, first compound 0.1 µM
[3] = second compound 0.000949 µM, first compound 0.316 µM
[4] = second compound 0.000949 µM, first compound 1 µM
[5] = second compound 0.000949 µM, first compound 3.16 µM
[6] = second compound 0.000949 µM, first compound 10 µM
[7] = second compound 0.003 µM, first compound 0.0316 µM
[8] = second compound 0.003 µM, first compound 0.1 µM
[9] = second compound 0.003 µM, first compound 0.316 µM
[10] = second compound 0.003 µM, first compound 1 µM
[11] = second compound 0.003 µM, first compound 3.16 µM
[12] = second compound 0.003 µM, first compound 10 µM
[13] = second compound 0.00949 µM, first compound 0.0316 µM
[14] = second compound 0.00949 µM, first compound 0.1 µM
[15] = second compound 0.00949 µM, first compound 0.316 µM
[16] = second compound 0.00949 µM, first compound 1 µM
[17] = second compound 0.00949 µM, first compound 3.16 µM
[18] = second compound 0.00949 µM, first compound 10 µM
[19] = second compound 0.03 µM, first compound 0.0316 µM
[20] = second compound 0.03 µM, first compound 0.1 µM
[21] = second compound 0.03 µM, first compound 0.316 µM
[22] = second compound 0.03 µM, first compound 1 µM
[23] = second compound 0.03 µM, first compound 3.16 µM
[24] = second compound 0.03 µM, first compound 10 µM
[25] = second compound 0.0949 µM, first compound 0.0316 µM
[26] = second compound 0.0949 µM, first compound 0.1 µM
[27] = second compound 0.0949 µM, first compound 0.316 µM
[28] = second compound 0.0949 µM, first compound 1 µM
[29] = second compound 0.0949 µM, first compound 3.16 µM
[30] = second compound 0.0949 µM, first compound 10 µM
[31] = second compound 0.3 µM, first compound 0.0316 µM
[32] = second compound 0.3 µM, first compound 0.1 µM
[33] = second compound 0.3 µM, first compound 0.316 µM
[34] = second compound 0.3 µM, first compound 1 µM
[35] = second compound 0.3 µM, first compound 3.16 µM
[36] = second compound 0.3 µM, first compound 10 µM
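Also: spheroids exposed to the agents for 7 days before readout.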
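For viability, T/C in this document: luminescence viability as percent of DMSO vehicle control wells.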

Q: For `CCC(CC)c1cc(NC2CCC(N)C2)n2nccc2n1` (centres undefined) + CCn1c(-c2cc(N3CCN(C)CC3)cnc2C(C)OC)c2c3cc(ccc31)-c1csc(n1)CC(NC(=O)C1CC1C)C(=O)N1CCCC(N1)C(=O)OCC(C)(C)C2, which IC50 (second compound 0.000949 µM) is on record?
A: The IC50 was 4.55 µM.

Q: And the IC50 (second compound 0.003 µM)?
A: Its IC50 is 4.56 µM.

Q: And the IC50 (second compound 0.00949 µM)?
A: Its IC50 is 4.58 µM.

Q: And the IC50 (second compound 0.03 µM)?
A: The IC50 was 4.8 µM.

Q: What about the IC50 (second compound 0.0949 µM) of the same molecule?
A: The IC50 was 4.69 µM.

Q: What about the IC50 (second compound 0.3 µM) of the same molecule?
A: The IC50 was < 0.0316 µM.

Q: And the viability, T/C [1]?
A: The viability, T/C was 94.5%.

Q: And the viability, T/C [2]?
A: Its viability, T/C is 116%.

Q: What about the viability, T/C [3] of the same molecule?
A: Its viability, T/C is 99.3%.

Q: What about the viability, T/C [4] of the same molecule?
A: The viability, T/C was 101%.

Q: What about the viability, T/C [5] of the same molecule?
A: The viability, T/C was 71.2%.

Q: What about the viability, T/C [6] of the same molecule?
A: Its viability, T/C is 4.02%.

Q: What about the viability, T/C [7] of the same molecule?
A: Its viability, T/C is 103%.

Q: What about the viability, T/C [8] of the same molecule?
A: Its viability, T/C is 108%.

Q: What about the viability, T/C [9] of the same molecule?
A: Its viability, T/C is 96.6%.

Q: What about the viability, T/C [10] of the same molecule?
A: Its viability, T/C is 98.4%.

Q: What about the viability, T/C [11] of the same molecule?
A: The viability, T/C was 71.4%.

Q: And the viability, T/C [12]?
A: The viability, T/C was 3.89%.

Q: And the viability, T/C [13]?
A: Its viability, T/C is 102%.

Q: And the viability, T/C [14]?
A: Its viability, T/C is 141%.

Q: What about the viability, T/C [15] of the same molecule?
A: The viability, T/C was 97.5%.

Q: What about the viability, T/C [16] of the same molecule?
A: Its viability, T/C is 94.7%.

Q: And the viability, T/C [17]?
A: Its viability, T/C is 76%.

Q: What about the viability, T/C [18] of the same molecule?
A: The viability, T/C was 3.54%.

Q: What about the viability, T/C [19] of the same molecule?
A: The viability, T/C was 101%.

Q: What about the viability, T/C [20] of the same molecule?
A: Its viability, T/C is 103%.

Q: What about the viability, T/C [21] of the same molecule?
A: The viability, T/C was 89.8%.

Q: What about the viability, T/C [22] of the same molecule?
A: The viability, T/C was 99.4%.

Q: What about the viability, T/C [23] of the same molecule?
A: The viability, T/C was 76.1%.

Q: And the viability, T/C [24]?
A: Its viability, T/C is 3.95%.

Q: What about the viability, T/C [25] of the same molecule?
A: Its viability, T/C is 90.2%.

Q: What about the viability, T/C [26] of the same molecule?
A: The viability, T/C was 86.8%.

Q: What about the viability, T/C [27] of the same molecule?
A: Its viability, T/C is 81.2%.

Q: What about the viability, T/C [28] of the same molecule?
A: The viability, T/C was 85.6%.

Q: What about the viability, T/C [29] of the same molecule?
A: Its viability, T/C is 74.1%.

Q: What about the viability, T/C [30] of the same molecule?
A: Its viability, T/C is 3.61%.

Q: And the viability, T/C [31]?
A: The viability, T/C was 47.8%.

Q: What about the viability, T/C [32] of the same molecule?
A: Its viability, T/C is 51.8%.

Q: And the viability, T/C [33]?
A: The viability, T/C was 45%.

Q: And the viability, T/C [34]?
A: Its viability, T/C is 27.9%.

Q: And the viability, T/C [35]?
A: The viability, T/C was 4.3%.

Q: What about the viability, T/C [36] of the same molecule?
A: The viability, T/C was 3.52%.

Q: How did the IC50 (second compound 0.000949 µM) turn out when `Cc1nc(N2CCC3(CC2)COC(C)C3N)c(CO)nc1Sc1ccnc(N)c1Cl` (centres undefined) + CCn1c(-c2cccnc2C(C)OC)c2c3cc(ccc31)N1CCOC(CC(NC(=O)C(C(C)C)N(C)C(=O)C3(F)CCN(C(=O)C#CC(C)(C)N(C)C)CC3)C(=O)N3CCCC(N3)C(=O)OCC(C)(C)C2)C1 was run?
A: Its IC50 is > 10 µM.

Q: And the IC50 (second compound 0.003 µM)?
A: Its IC50 is > 10 µM.

Q: What about the IC50 (second compound 0.00949 µM) of the same molecule?
A: The IC50 was > 10 µM.

Q: What about the IC50 (second compound 0.03 µM) of the same molecule?
A: Its IC50 is > 10 µM.

Q: What about the IC50 (second compound 0.0949 µM) of the same molecule?
A: Its IC50 is > 10 µM.

Q: What about the IC50 (second compound 0.3 µM) of the same molecule?
A: Its IC50 is > 10 µM.

Q: And the viability, T/C [1]?
A: Its viability, T/C is 103%.

Q: And the viability, T/C [2]?
A: Its viability, T/C is 103%.

Q: What about the viability, T/C [3] of the same molecule?
A: Its viability, T/C is 93%.

Q: And the viability, T/C [4]?
A: The viability, T/C was 102%.

Q: And the viability, T/C [5]?
A: Its viability, T/C is 80.6%.

Q: And the viability, T/C [6]?
A: Its viability, T/C is 72%.

Q: What about the viability, T/C [7] of the same molecule?
A: The viability, T/C was 111%.

Q: What about the viability, T/C [8] of the same molecule?
A: Its viability, T/C is 103%.

Q: What about the viability, T/C [9] of the same molecule?
A: The viability, T/C was 103%.

Q: What about the viability, T/C [10] of the same molecule?
A: Its viability, T/C is 86.7%.

Q: What about the viability, T/C [11] of the same molecule?
A: The viability, T/C was 87.3%.

Q: What about the viability, T/C [12] of the same molecule?
A: The viability, T/C was 71.1%.

Q: What about the viability, T/C [13] of the same molecule?
A: The viability, T/C was 102%.

Q: And the viability, T/C [14]?
A: The viability, T/C was 111%.

Q: And the viability, T/C [15]?
A: Its viability, T/C is 92.1%.

Q: What about the viability, T/C [16] of the same molecule?
A: The viability, T/C was 93.3%.

Q: And the viability, T/C [17]?
A: The viability, T/C was 82.4%.

Q: What about the viability, T/C [18] of the same molecule?
A: The viability, T/C was 77.7%.

Q: What about the viability, T/C [19] of the same molecule?
A: The viability, T/C was 102%.

Q: What about the viability, T/C [20] of the same molecule?
A: The viability, T/C was 108%.

Q: And the viability, T/C [21]?
A: Its viability, T/C is 95.5%.

Q: What about the viability, T/C [22] of the same molecule?
A: The viability, T/C was 89.9%.

Q: What about the viability, T/C [23] of the same molecule?
A: The viability, T/C was 82.5%.

Q: What about the viability, T/C [24] of the same molecule?
A: Its viability, T/C is 66.4%.

Q: What about the viability, T/C [25] of the same molecule?
A: Its viability, T/C is 105%.

Q: What about the viability, T/C [26] of the same molecule?
A: The viability, T/C was 94.9%.

Q: What about the viability, T/C [27] of the same molecule?
A: Its viability, T/C is 96.7%.

Q: What about the viability, T/C [28] of the same molecule?
A: The viability, T/C was 77.5%.

Q: And the viability, T/C [29]?
A: The viability, T/C was 85.6%.

Q: What about the viability, T/C [30] of the same molecule?
A: Its viability, T/C is 74.7%.

Q: And the viability, T/C [31]?
A: The viability, T/C was 94.8%.

Q: And the viability, T/C [32]?
A: Its viability, T/C is 117%.

Q: What about the viability, T/C [33] of the same molecule?
A: The viability, T/C was 94.2%.

Q: What about the viability, T/C [34] of the same molecule?
A: Its viability, T/C is 87.4%.

Q: What about the viability, T/C [35] of the same molecule?
A: The viability, T/C was 76.7%.

Q: And the viability, T/C [36]?
A: Its viability, T/C is 64.9%.
